The record followed here is patent US6525178B2, “PGC-1, a novel brown fat PPARgamma coactivator” (Dana-Farber Cancer Institute, priority 1997, dated 2003).

The target in one experiment is T1, retinoic acid receptor (Homo sapiens, UniProt P10276).
T1 sequence (P10276 1-462): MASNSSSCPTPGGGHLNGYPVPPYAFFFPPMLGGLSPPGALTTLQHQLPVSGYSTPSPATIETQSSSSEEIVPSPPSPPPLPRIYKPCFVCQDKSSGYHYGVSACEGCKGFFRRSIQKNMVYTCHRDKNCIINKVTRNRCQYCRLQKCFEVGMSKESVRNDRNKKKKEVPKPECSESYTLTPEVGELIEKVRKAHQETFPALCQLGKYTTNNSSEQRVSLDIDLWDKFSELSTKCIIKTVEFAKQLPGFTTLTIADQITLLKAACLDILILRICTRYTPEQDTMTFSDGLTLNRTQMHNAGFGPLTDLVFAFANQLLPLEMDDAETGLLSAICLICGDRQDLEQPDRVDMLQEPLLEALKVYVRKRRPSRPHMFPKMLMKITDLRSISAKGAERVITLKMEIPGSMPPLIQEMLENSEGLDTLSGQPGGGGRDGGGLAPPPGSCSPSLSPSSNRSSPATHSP
T1 sequence (O70343 36-797 partner limits assumed): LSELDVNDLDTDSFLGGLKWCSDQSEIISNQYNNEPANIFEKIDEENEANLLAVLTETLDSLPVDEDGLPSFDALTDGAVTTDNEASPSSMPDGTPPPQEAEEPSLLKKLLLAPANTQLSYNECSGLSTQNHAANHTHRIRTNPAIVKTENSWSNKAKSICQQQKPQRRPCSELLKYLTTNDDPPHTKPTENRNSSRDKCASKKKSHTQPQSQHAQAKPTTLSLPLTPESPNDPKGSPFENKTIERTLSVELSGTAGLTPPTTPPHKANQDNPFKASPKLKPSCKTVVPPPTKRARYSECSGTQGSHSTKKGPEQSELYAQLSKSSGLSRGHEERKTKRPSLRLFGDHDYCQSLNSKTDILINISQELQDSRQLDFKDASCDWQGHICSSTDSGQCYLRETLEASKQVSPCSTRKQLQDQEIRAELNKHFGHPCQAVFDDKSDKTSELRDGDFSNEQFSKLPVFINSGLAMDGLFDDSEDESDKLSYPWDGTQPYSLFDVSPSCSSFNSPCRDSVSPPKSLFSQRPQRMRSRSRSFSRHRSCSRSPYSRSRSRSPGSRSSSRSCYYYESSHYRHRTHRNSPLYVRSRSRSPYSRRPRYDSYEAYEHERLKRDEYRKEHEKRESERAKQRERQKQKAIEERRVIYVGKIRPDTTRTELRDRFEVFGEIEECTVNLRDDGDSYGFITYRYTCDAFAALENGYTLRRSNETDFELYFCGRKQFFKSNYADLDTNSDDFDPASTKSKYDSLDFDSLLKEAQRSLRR
The experiment in a line: In vitro binding of GST-PGC-1 to in vitro-translated nuclear receptor. The conditions noted are these: ligand 1 μM.

The next experiment concerns the target T2, PPARδ (Homo sapiens, UniProt Q03181).
T2 construct: made in house; host or cells: receptor: reticulocyte lysate in vitro translation (Promega TNT); GST-PGC-1: E. coli
T2 sequence (Q03181 1-441): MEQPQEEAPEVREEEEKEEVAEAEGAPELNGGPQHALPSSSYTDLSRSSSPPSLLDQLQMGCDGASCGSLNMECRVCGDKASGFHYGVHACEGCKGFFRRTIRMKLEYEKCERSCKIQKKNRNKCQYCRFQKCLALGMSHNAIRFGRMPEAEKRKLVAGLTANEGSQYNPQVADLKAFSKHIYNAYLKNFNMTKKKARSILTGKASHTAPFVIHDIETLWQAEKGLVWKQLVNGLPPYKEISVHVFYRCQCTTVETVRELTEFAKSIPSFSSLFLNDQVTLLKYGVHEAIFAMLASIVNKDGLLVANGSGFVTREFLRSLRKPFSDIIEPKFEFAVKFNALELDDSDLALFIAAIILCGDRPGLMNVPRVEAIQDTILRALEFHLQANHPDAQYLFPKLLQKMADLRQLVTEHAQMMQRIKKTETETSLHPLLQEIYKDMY
T2 sequence (O70343 36-797 partner limits assumed): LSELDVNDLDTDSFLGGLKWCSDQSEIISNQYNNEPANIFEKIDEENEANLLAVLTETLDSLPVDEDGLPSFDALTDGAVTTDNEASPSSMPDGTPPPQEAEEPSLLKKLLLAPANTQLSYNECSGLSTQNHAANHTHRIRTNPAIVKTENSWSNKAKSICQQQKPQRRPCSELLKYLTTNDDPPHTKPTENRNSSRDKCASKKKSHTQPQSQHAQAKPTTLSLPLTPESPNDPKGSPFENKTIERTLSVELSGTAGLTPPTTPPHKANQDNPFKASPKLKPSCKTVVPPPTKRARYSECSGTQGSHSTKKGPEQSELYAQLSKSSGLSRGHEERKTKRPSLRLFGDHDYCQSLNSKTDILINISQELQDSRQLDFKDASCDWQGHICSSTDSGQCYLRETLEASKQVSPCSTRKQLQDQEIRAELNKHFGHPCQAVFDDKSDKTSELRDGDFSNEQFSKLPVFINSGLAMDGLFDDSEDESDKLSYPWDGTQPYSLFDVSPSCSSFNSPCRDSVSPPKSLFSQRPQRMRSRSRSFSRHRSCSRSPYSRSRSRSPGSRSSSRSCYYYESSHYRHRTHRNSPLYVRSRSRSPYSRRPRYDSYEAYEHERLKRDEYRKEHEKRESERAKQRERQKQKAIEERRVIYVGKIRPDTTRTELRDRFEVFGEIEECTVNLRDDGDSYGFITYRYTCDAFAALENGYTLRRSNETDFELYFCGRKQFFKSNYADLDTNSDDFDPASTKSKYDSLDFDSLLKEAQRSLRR
Described as above. The conditions noted are these: ligand 1 μM. The protocol:
(§1) The assays were carried out as follows.

Another experiment concerns HIB 1B brown fat cells. As to the kind of experiment: Northern analysis of PGC-1 and UCP-1 mRNA in treated HIB 1B brown fat cells. The following applies: HIB 1B cells, 1 μM, 10 hr. Format: cell-based, mouse. An excerpt: Cold is sensed in the central nervous system and results in increased sympathetic output to peripheral tissues, including muscle and brown fat Himms-Hagen (1989) Can. J. Physiol Pharmcol. 67:394-401). Cold exposure can be mimicked, in terms of brown adipocyte precursor cell growth and the induction of UCP-1, by exposure of cultured brown fat cells to β-adrenergic agonists (Rehnmark et al. (1990) J. Biol. Chem. 25:16464-16471). To determine if PGC-1 gene expression is also sensitive to β-adrenergic agonists, HIB 1B brown fat cells were treated with isoproterenol (1 μM), a nonsubtype selective β agonist, for 10 hr. Total cellular RNA was isolated and analyzed using PGC-1 and UCP-1 cDNA probes.
Briefly, HIB 1B brown fat preadipocytes were differentiated as described herein. After 6 days, cells were approximately 80% differentiated.

The target in a further experiment is T3, PPARα (Homo sapiens, UniProt Q07869).
T3 construct: made in house; host or cells: receptor: reticulocyte lysate in vitro translation (Promega TNT); GST-PGC-1: E. coli
T3 sequence (Q07869 1-468): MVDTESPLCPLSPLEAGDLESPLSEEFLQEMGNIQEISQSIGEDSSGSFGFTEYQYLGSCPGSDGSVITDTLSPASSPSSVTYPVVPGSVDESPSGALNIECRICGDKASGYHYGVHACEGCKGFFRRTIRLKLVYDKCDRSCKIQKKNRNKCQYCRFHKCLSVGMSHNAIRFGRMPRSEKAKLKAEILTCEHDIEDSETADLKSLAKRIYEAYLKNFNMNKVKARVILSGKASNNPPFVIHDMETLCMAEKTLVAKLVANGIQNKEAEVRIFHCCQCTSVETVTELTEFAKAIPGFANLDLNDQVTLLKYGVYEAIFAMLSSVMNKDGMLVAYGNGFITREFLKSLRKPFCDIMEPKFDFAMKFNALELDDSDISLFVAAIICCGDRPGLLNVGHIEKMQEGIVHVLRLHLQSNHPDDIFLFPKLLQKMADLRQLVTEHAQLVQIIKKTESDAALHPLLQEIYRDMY
T3 sequence (O70343 36-797 partner limits assumed): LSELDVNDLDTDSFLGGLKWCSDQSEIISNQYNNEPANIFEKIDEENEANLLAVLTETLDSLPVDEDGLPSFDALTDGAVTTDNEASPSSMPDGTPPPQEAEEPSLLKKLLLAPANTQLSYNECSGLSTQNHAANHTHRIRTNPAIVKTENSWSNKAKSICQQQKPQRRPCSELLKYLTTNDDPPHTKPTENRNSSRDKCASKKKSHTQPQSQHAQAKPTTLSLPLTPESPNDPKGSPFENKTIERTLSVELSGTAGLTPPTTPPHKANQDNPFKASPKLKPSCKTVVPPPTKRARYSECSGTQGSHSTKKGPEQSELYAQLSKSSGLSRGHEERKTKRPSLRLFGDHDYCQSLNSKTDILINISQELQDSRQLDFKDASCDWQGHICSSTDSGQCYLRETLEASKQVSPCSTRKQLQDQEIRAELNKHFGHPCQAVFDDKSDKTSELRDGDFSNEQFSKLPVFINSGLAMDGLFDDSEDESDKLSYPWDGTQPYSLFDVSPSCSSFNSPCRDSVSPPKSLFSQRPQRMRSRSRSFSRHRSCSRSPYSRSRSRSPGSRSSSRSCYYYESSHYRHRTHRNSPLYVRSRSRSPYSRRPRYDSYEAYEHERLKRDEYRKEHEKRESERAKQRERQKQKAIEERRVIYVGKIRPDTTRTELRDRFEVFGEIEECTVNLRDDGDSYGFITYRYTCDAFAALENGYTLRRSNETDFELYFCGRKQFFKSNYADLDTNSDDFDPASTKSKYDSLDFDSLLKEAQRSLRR
As to the kind of experiment: In vitro binding of GST-PGC-1 to in vitro-translated nuclear receptor. The conditions noted are these: ligand 1 μM. As for the experimental part: as §1

Another experiment deals with PPARγ. As to the kind of experiment: Binding of in vitro-translated PGC-1 C-terminal deletions to immobilized PPARγ fusion protein. The conditions noted are these: 35S-labelled PGC-1 deletions. On the set-up: species or system mouse. The text has this:
The interaction between nuclear receptors and certain coactivators such as SRC-1 or CBP is ligand dependent (Kamai et al. (1996) Cell 84:403-414) and involves an LXXLL (SEQ ID NO:3) motif in the coactivators and the C-terminal AF-2 domain in the receptors (Heery et al. (1997) Nature 387:733-736; Torchia et al. (1997) Nature 387:677-684). To identify the domains responsible for PGC-1-PPARγ interactions, different C-terminal deletions of PGC-1 were generated as reticulocyte translation products and mixed with a […] fusion protein. Deletions of PGC-1 were made using specific restriction sites in the PGC-1 cDNA closed in pBluescript. The following restriction enzymes were used for these deletions: full-length Xhol (aa-1-797), Haell (aa 1-675) Ncol (aa 1-503), Xbal (aa 1-403), Kpnl (aa 1-338), and Stul (aa 1-292). These were then translated into vitro with an [^35S]methionine-label. One microliter of each in vitro translation reaction was resolved by SDS-PAGE and autoradiographed.
FIG. 4 summarizes the input of both the full-length PGC-1(1-797) and the 1-675 deletion which bind to the immobilized PPARγ.

Chain of PPARγ (P37238 183-505 limits assumed): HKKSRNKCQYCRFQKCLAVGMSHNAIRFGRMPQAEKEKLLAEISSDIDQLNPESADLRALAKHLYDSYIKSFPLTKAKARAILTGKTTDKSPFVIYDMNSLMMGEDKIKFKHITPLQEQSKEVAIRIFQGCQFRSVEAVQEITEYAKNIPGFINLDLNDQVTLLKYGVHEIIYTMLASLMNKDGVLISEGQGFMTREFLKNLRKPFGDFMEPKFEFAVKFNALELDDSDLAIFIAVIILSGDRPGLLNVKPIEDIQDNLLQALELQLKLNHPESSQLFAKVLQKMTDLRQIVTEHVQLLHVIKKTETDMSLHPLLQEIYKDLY
Procedure for retinoic acid receptor: These fusion proteins were expressed, and purified from E. coli on beads containing approximately 1 μg of protein (either GST, or alone, or fused to PGC-1), 30 μl was resuspended i the binding buffer (20 mM HEPES [pH 7.7], 75 mM KCl, 0.1 mM EDTA, 2.5 mM MgCl2, 0.05% NP40,2 mM DTT, 10% glycerol).
The assays were carried out as follows. […] After electrophoresis, fixation, and enhancement, the radiolabeled proteins were visualized by autoradiography.

Take `CC1=C(/C=C/C(C)=C/C=C/C(C)=C/C(=O)O)C(C)(C)CCC1` [all-trans retinoic acid]: the “ligand dependency of PGC-1 interaction with the retinoic acid receptor” value on retinoic acid receptor is given as “strong ligand dependency”.
With `CCCCC[C@H](O)/C=C/[C@@H]1[C@H]2C/C(=C/CCCC(=O)O)C[C@H]2C[C@H]1O` [carboprostacyclin], the “ligand dependency of PGC-1 interaction with PPARδ” value at PPARδ is “slight ligand dependency”.
On to `CC(C)NCC(O)c1ccc(O)c(O)c1` (stereo not shown) [isoproterenol], for which, in the experiment on HIB 1B brown fat cells, the “PGC-1 mRNA” value is reported as “sharp increase” and the “UCP-1 mRNA” value was “sharp increase”.
As to `CCCCC/C=C\C[C@@H](O)/C=C/C=C/C=C\[C@@H](O)CCCC(=O)O` [leukotriene-4], the “ligand dependency of PGC-1 interaction with PPARα” value at PPARα is “slight ligand dependency”.

B1: PGC-1 1-503: C-terminal deletion of PGC-1, aa 1-503, lacks the SR and RNA-binding domains (protein)
chain: MAWDMCSQDSVWSDIECAALVGEDQPLCPDLPELDLSELDVNDLDTDSFLGGLKWCSDQSEIISNQYNNEPANIFEKIDEENEANLLAVLTETLDSLPVDEDGLPSFDALTDGAVTTDNEASPSSMPDGTPPPQEAEEPSLLKKLLLAPANTQLSYNECSGLSTQNHAANHTHRIRTNPAIVKTENSWSNKAKSICQQQKPQRRPCSELLKYLTTNDDPPHTKPTENRNSSRDKCASKKKSHTQPQSQHAQAKPTTLSLPLTPESPNDPKGSPFENKTIERTLSVELSGTAGLTPPTTPPHKANQDNPFKASPKLKPSCKTVVPPPTKRARYSECSGTQGSHSTKKGPEQSELYAQLSKSSGLSRGHEERKTKRPSLRLFGDHDYCQSLNSKTDILINISQELQDSRQLDFKDASCDWQGHICSSTDSGQCYLRETLEASKQVSPCSTRKQLQDQEIRAELNKHFGHPCQAVFDDKSDKTSELRDGDFSNEQFSKLPVFINSG
Consider B1, for which, in the experiment on PPARγ, the “percentage of input material that bound to PPARγ” value is given as 18%.

B2: PGC-1 1-292: C-terminal deletion of PGC-1, aa 1-292, still contains the LXXLL motif (protein)
chain: MAWDMCSQDSVWSDIECAALVGEDQPLCPDLPELDLSELDVNDLDTDSFLGGLKWCSDQSEIISNQYNNEPANIFEKIDEENEANLLAVLTETLDSLPVDEDGLPSFDALTDGAVTTDNEASPSSMPDGTPPPQEAEEPSLLKKLLLAPANTQLSYNECSGLSTQNHAANHTHRIRTNPAIVKTENSWSNKAKSICQQQKPQRRPCSELLKYLTTNDDPPHTKPTENRNSSRDKCASKKKSHTQPQSQHAQAKPTTLSLPLTPESPNDPKGSPFENKTIERTLSVELSGTAG
B2: in the experiment on PPARγ, the “percentage of input material that bound to PPARγ” value was “completely loses the ability to interact with PPARγ”.
